Test results as given in publication PMC7212882, “Efficacy and pharmacodynamics of niraparib in BRCA-mutant and wild-type intracranial triple-negative breast cancer murine models” (Neuro-oncology Advances, 2019).
Like-named read-outs stand apart in the source and are kept apart here. Marks after values point to notes of the source that are not given here.

Legend:
PARP1/2 = conditions: read-out: in vitro IC50s; dual PARP1/2 inhibitor; cited from earlier work
PARP [1] = conditions: in vivo, niraparib daily 2 weeks
Experimental: For efficacy studies, treatment started at day 7 for MDA-MB-231Br, day 14 for SUM149, and day 14 for MDA-MB-436. […] For efficacy studies, mice were given a daily oral gavage of 50 mg/kg niraparib or vehicle (0.5% methylcellulose). To determine median survival, animals were sacrificed when weights decreased […] of an individual mouse’s maximum weight. For pharmacodynamic and pharmacokinetic studies, mice were grouped and treated as in efficacy studies for 2 weeks. At 4 h from last niraparib dose, IC tumor, peri-tumoral tissue (2 mm around the perimeter of a tumor), and contralateral brain were dissected, snap frozen, and stored frozen for each mouse and stored at –80°C.
(§1) 25–50 mg of tumor tissue were homogenized per protocol, and lysates were used to quantify PAR (pg/ml) using a chemiluminescent enzyme-linked immunosorbent assay (ELISA) in comparison to provided standards (Trevigen, HT PARP in vivo Pharmacodynamic Assay II, #4520-096-K). PAR values were normalized across models to 100 µg of lysate.
(§2) A 2-way ANOVA with Tukey’s test and P-value correction for multiple comparisons was used to compare tissue levels of niraparib (pharmacokinetics) or PAR (pharmacodynamics). A t-test was used to compare PAR levels in MDA-MB-436 cells treated in vitro (GraphPad Prism, v7.04)

PARP [2] = conditions: MDA-MB-436 cells in vitro; vehicle 3821.1; P = .034
Experimental: as §1, §2

[3] = test system: cells with BRCA1/BRCA2 deficiencies; conditions: read-out: in vitro CC50; cited from earlier work
[4] = mouse, in vivo
Description: For efficacy studies, treatment started at day 7 for MDA-MB-231Br, day 14 for SUM149, and day 14 for MDA-MB-436. […] To determine median survival, animals were sacrificed when weights decreased to 20% of an individual mouse’s maximum weight. For pharmacodynamic and pharmacokinetic studies, mice were grouped and treated as in efficacy studies for 2 weeks.

MDA-MB-231Br = conditions: intracranial MDA-MB-231Br
Experimental: (§3) All animal studies protocols were approved by the University of North Carolina (UNC), Chapel Hill Institutional Animal Care and Use Committee, executed by the UNC Animal Studies Core, and performed as described previously.[23],[27] For IC injections, cells were harvested in log-phase growth and suspended in Hank's Balanced Salt Solution + 0.5% FBS. Eight- to 10-week Foxn1 nu/nu female mice (UNC Animal Studies Core) were implanted with 200 000 cells/5 µl of suspension through stereotactic IC injection in the right striatum. Animal weights were collected from injection to death 3 times weekly. To determine tumor volumes, mice were anesthetized, injected intraperitoneally with D-luciferin dissolved in phosphate-buffered saline (150 mg/kg; Caliper Life Sciences, Hopkinton, MA), and then imaged by IVIS Lumina camera (Caliper Life Sciences). Images were analyzed with Living Image 4.0 software (Caliper Life Sciences). All values were corrected for background and recorded as photons/s.
(§4) For efficacy studies, mice were given a daily oral gavage of 50 mg/kg niraparib or vehicle (0.5% methylcellulose). To determine median survival, animals were sacrificed when weights decreased […] of an individual mouse’s maximum weight. For pharmacodynamic and pharmacokinetic studies, mice were grouped and treated as in efficacy studies for 2 weeks. At 4 h from last niraparib dose, IC tumor, peri-tumoral tissue (2 mm around the perimeter of a tumor), and contralateral brain were dissected, snap frozen, and stored frozen for each mouse and stored at –80°C.
(§5) The Kaplan–Meier method and log-rank test were used to estimate and compare median survival between treatment groups.
(§6) Both fold change in tumor volumes and weight over time were determined relative to treatment start date. Linear mixed models, with a random intercept and slope, were used to evaluate changes over time, overall and between groups (SAS, v9.3)

SUM149 [5] = test system: SUM149
Experimental: as §3, §4, §5, §6

MDA-MB-436 [6] = test system: MDA-MB-436
Experimental: as §3, §4, §5, §6

MDA-MB-436 [7] = conditions: subcutaneous flank model, female nude mice, 100 mg/kg once daily or 50 mg/kg twice daily; cited from earlier work
SUM149 [8] = conditions: read-out: 5–7 day CC50; cited from earlier work
MDA-MB-436 [9] = conditions: read-out: 5–7 day CC50; cited from earlier work

NC(=O)c1cccc2cn(-c3ccc([C@@H]4CCCNC4)cc3)nc12 [niraparib, 2-{4-[(3S)-piperidin-3-yl]phenyl}-2H-indazole-7-carboxamide]
IC50 (PARP1/2): […] | PAR levels, mean (PARP [1]; intracranial MDA-MB-436 tumors, vehicle 195.2, P = .99): 145.7 picogram PAR per microgram tissue | PAR levels, mean (PARP [1]; intracranial SUM149 tumors, vehicle 4054.5, P = .0027): 433.1* picogram PAR per microgram tissue | PAR levels, mean (PARP [2]): 248.2* picogram PAR per microgram tissue | CC50 [3]: 10 to 100 nM | tolerability [4]: well tolerated | median survival (MDA-MB-231Br; 50 mg/kg daily oral gavage, P = .21 vs vehicle (23 days)): 22 days | weight changes vs vehicle (MDA-MB-231Br; 50 mg/kg daily, P = .21): did not differ significantly | tumor volumes measured by luciferase activity vs vehicle (MDA-MB-231Br; 50 mg/kg daily, P = .7): did not differ significantly | median survival (SUM149 [5]; intracranial SUM149, 50 mg/kg daily oral gavage, P = .30 vs vehicle (33 days)): 34 days | tumor volumes measured by luciferase activity vs vehicle (SUM149 [5]; intracranial SUM149, 50 mg/kg daily, P = .06): did not differ significantly | weight changes vs vehicle (SUM149 [5]; intracranial SUM149, 50 mg/kg daily, P = .14): did not differ significantly | body weight (MDA-MB-436 [6]; intracranial MDA-MB-436, 50 mg/kg daily, control mice lost weight, P < .0001): maintained normal weight | mice alive at day 70 (MDA-MB-436 [6]; intracranial MDA-MB-436, 50 mg/kg daily, day 70, end of study): 100% | suppression of tumor bioluminescence (MDA-MB-436 [6]; intracranial MDA-MB-436, 50 mg/kg daily, for the extent of the experiment): greater than 90% | increase in median survival (MDA-MB-436 [6]; intracranial MDA-MB-436, 50 mg/kg daily, study ended day 70, untreated median 50 days, P < .0001): at least 20 days | increase over untreated median survival (MDA-MB-436 [6]; intracranial MDA-MB-436, 50 mg/kg daily, untreated median 50 days): more than 40% | average tumor bioluminescence (MDA-MB-436 [6]; intracranial MDA-MB-436, day 35, after 3 weeks of treatment, control 1.15 × 10^9, P < .0001): 9.56 × 10^7 photons/s | in vivo tumor growth (MDA-MB-436 [7]): inhibited | CC50 (SUM149 [8]): 24 nM | CC50 (MDA-MB-436 [9]): 18 nM
